Source: patent EP0088462A2, “Anti-inflammatory and rheumatic composition containing organophosphonate and steroid” (THE PROCTER & GAMBLE COMPANY, priority 1982, dated 1983)
Marks after values point to notes of the source that are not given here.

Tested on: rat adjuvant arthritis
Assay: Rat adjuvant arthritis (Example I): paw edema, bone changes and systemic parameters after 46 days of daily treatment
Type: in vivo, male Lewis rats
Conditions: for Group Average Fat Free Dry Weight of Bone from Tibias: daily
Excerpt: One hundred and twenty-five (125) male Lewis rats weighing between 160 and 180 grams each were randomly divided into 12 groups of ten rats each, except the vehicle control group which had 15 rats. Each group was placed under a treatment regimen as described in the table below for a 46 day period.
Adjuvant arthritis was induced in groups one through twelve by a single intradermal injection of heat-killed Mycobacterium butyricum in paraffin oil. The drug treatments wen begun on the same day that the adjuvant was administered, and continued on a daily basis through the study. Drug doses were adjusted each week for changes in body weight.
Paw edema was measured weekly by liquid displacement, immersing the hind legs in a liquid reservoir to the anatomical hair line. Bone changes were evaluated radiographically and by chemical analysis at the conclusion of the study. Ectopic calcification was quantitated by use of a point-counting system with grids of one millimeter square.
The diphosphonate treatment solution for use on the animals in group 2, 3, 7-12, was prepared as follows: the disodium salt of dichloromethane diphosphonic acid was dissolved in saline, adjusted to a pH of 7.4 using sodium hydroxide, and sterilized by vacuum filtration (0.2 micron). The concentration of this solution was adjusted to a concentration of 5 mg of C12 MDP (disodium salt) per milliliter of solution.
The prednisolone to be administered was suspended in […]. The concentration of this suspension was adjusted to 0.10 milligram per milliliter so that it could be administered at a dose volume of 0.5 ml/100 gm body weight.
The disodium salt of Cl2MDP was administered by subcutaneous ventral flank injections. The prednisolone was administered by gastric intubation.
At the end of the treatment period, the rats were sacrificed, necropsied, and the effects of the treatment on the rats were measured in the categories listed below.

[1] = single agent versus placebo (saline and methyl cellulose)

| Compound | Group Average Fat Free Dry Weight of Bone from Tibias (Cl2MDP 2 mg/kg subcutaneous, Prednisolone none) | Group Average Fat Free Dry Weight of Bone from Tibias (Cl2MDP 5 mg/kg subcutaneous, Prednisolone none) | inhibiting bone changes associated with arthritic disease [1] | inhibiting loss of body, weight [1] | inhibiting paw edema [1] | inhibiting spleen weight/body weight ratio [1] | Group Average Fat Free Dry Weight of Bone from Tibias (Cl2MDP none, Prednisolone 0.25 mg/kg by gastric intubation) | Group Average Fat Free Dry Weight of Bone from Tibias (Cl2MDP none, Prednisolone 0.50 mg/kg by gastric intubation) | Group Average Fat Free Dry Weight of Bone from Tibias (Cl2MDP none, Prednisolone 2.50 mg/kg by gastric intubation) | inhibiting pathological caldivication (prednisolone alone) | inhibiting the calcium and phosphorus in bone (prednisolone alone) |
| --- | --- | --- | --- | --- | --- | --- | --- | --- | --- | --- | --- |
| O=P(O)(O)C(Cl)(Cl)P(=O)(O)O [Cl2MDP, Dichloromethanediphosphonic acid] | 372.48* | 382.42* | significantly more effective than the placebo | significantly more effective than the placebo | significantly more effective than the placebo | significantly more effective than the placebo |  |  |  |  |  |
| C[C@]12C=CC(=O)C=C1CC[C@@H]1[C@@H]2[C@@H](O)C[C@@]2(C)[C@H]1CC[C@]2(O)C(=O)CO [Prednisolone, 11 β, 17, 21-Trihydroxypregna-1,4-diene-3, 20-dione] |  |  |  |  | effective |  | 308.96 | 311.56 | 315.58 | effective | effective |
